The values that follow come from patent publication US20150038739A1, “METHOD FOR MANUFACTURING REFINED METHIONINE” (SUMITOMO CHEMICAL COMPANY, LIMITED, priority 2012, published 2015).

`CSCC[C@H](N)C(=O)O` [methionine]: the “solubility of methionine in pure water (saturated solubility)” value (pure water, normal temperature and normal pressure) is given as “about 3.0 % by weight”. The “saturated solubility of methionine in alkaline recovered wash water” value (under 2.0% by weight of concentration of potassium) is reported as “about 5.0 % by weight”.
